Assay results as given in PubChem BioAssay AID1963986 (Molecular Pharmacology Branch, DTP, NCI, 2024).

Tested on: 171881-019-R-J1-PDC tumor spheroid viability
Assay: Anticancer human tumor 171881-019-R-J1-PDC patient-derived invasive breast carcinoma cell line growth inhibition [PI3K]
Details: spheroids with HUVEC and MSC; for IC50: curve of first compound; for viability, T/C: stronger effect = lower value
Procedure, shortened: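 High-throughput combination screen: PI3K inhibitors crossed with targeted small molecules on complex spheroids of tumor cells, HUVEC and MSCs at 37 degrees C, 5% CO2. Top concentration was at or near clinical Cmax (otherwise 10 microM), with half-log decrements.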

[1] = second compound 0.0316 µM, first compound 0.0316 µM
[2] = second compound 0.0316 µM, first compound 0.1 µM
[3] = second compound 0.0316 µM, first compound 0.316 µM
[4] = second compound 0.0316 µM, first compound 1 µM
[5] = second compound 0.0316 µM, first compound 3.16 µM
[6] = second compound 0.0316 µM, first compound 10 µM
[7] = second compound 0.1 µM, first compound 0.0316 µM
[8] = second compound 0.1 µM, first compound 0.1 µM
[9] = second compound 0.1 µM, first compound 0.316 µM
[10] = second compound 0.1 µM, first compound 1 µM
[11] = second compound 0.1 µM, first compound 3.16 µM
[12] = second compound 0.1 µM, first compound 10 µM
[13] = second compound 0.316 µM, first compound 0.0316 µM
[14] = second compound 0.316 µM, first compound 0.1 µM
[15] = second compound 0.316 µM, first compound 0.316 µM
[16] = second compound 0.316 µM, first compound 1 µM
[17] = second compound 0.316 µM, first compound 3.16 µM
[18] = second compound 0.316 µM, first compound 10 µM
[19] = second compound 1 µM, first compound 0.0316 µM
[20] = second compound 1 µM, first compound 0.1 µM
[21] = second compound 1 µM, first compound 0.316 µM
[22] = second compound 1 µM, first compound 1 µM
[23] = second compound 1 µM, first compound 3.16 µM
[24] = second compound 1 µM, first compound 10 µM
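Note: spheroids exposed to compound for 7 days before viability read.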
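Throughout, for viability, T/C: 100% = DMSO vehicle-treated spheroids.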

**Q.** Which IC50 (second compound 0.0316 µM) does the source give for `CNC(=O)c1ccc(N2C(=S)N(c3ccc(C#N)c(C(F)(F)F)c3)C(=O)C2(C)C)cc1F` + Cc1nc(NC(=O)N2CCCC2C(N)=O)sc1-c1ccnc(C(C)(C)C(F)(F)F)c1 here?
**A.** > 10000 nM

**Q.** What about the IC50 (second compound 0.1 µM) of the same molecule?
**A.** > 10000 nM

**Q.** And the IC50 (second compound 0.316 µM)?
**A.** 4660 nM

**Q.** And the IC50 (second compound 1 µM)?
**A.** < 31.6 nM

**Q.** What about the IC50 (second compound 3.16 µM) of the same molecule?
**A.** < 31.6 nM

**Q.** And the IC50 (second compound 10 µM)?
**A.** < 31.6 nM

**Q.** What about the viability, T/C [1] of the same molecule?
**A.** 90.4%

**Q.** What about the viability, T/C [2] of the same molecule?
**A.** 81.5%

**Q.** What about the viability, T/C [3] of the same molecule?
**A.** 84.4%

**Q.** And the viability, T/C [4]?
**A.** 87.7%

**Q.** And the viability, T/C [5]?
**A.** 86%

**Q.** What about the viability, T/C [6] of the same molecule?
**A.** 69.7%

**Q.** What about the viability, T/C [7] of the same molecule?
**A.** 79%

**Q.** What about the viability, T/C [8] of the same molecule?
**A.** 77%

**Q.** And the viability, T/C [9]?
**A.** 82.9%

**Q.** And the viability, T/C [10]?
**A.** 66.4%

**Q.** What about the viability, T/C [11] of the same molecule?
**A.** 74.6%

**Q.** What about the viability, T/C [12] of the same molecule?
**A.** 66.1%

**Q.** What about the viability, T/C [13] of the same molecule?
**A.** 58.6%

**Q.** And the viability, T/C [14]?
**A.** 50.2%

**Q.** And the viability, T/C [15]?
**A.** 50.3%

**Q.** What about the viability, T/C [16] of the same molecule?
**A.** 52.5%

**Q.** And the viability, T/C [17]?
**A.** 57.2%

**Q.** What about the viability, T/C [18] of the same molecule?
**A.** 45.1%

**Q.** What about the viability, T/C [19] of the same molecule?
**A.** 31.2%

**Q.** What about the viability, T/C [20] of the same molecule?
**A.** 31.1%

**Q.** And the viability, T/C [21]?
**A.** 31.8%

**Q.** What about the viability, T/C [22] of the same molecule?
**A.** 30.9%

**Q.** What about the viability, T/C [23] of the same molecule?
**A.** 32.7%

**Q.** And the viability, T/C [24]?
**A.** 27.7%

**Q.** And the viability, T/C (second compound 3.16 µM, first compound 0.0316 µM)?
**A.** 13.2%

**Q.** And the viability, T/C (second compound 3.16 µM, first compound 0.1 µM)?
**A.** 12.7%

**Q.** What about the viability, T/C (second compound 3.16 µM, first compound 0.316 µM) of the same molecule?
**A.** 13.1%

**Q.** What about the viability, T/C (second compound 3.16 µM, first compound 1 µM) of the same molecule?
**A.** 12.6%

**Q.** What about the viability, T/C (second compound 3.16 µM, first compound 3.16 µM) of the same molecule?
**A.** 12.5%

**Q.** What about the viability, T/C (second compound 3.16 µM, first compound 10 µM) of the same molecule?
**A.** 11.1%

**Q.** What about the viability, T/C (second compound 10 µM, first compound 0.0316 µM) of the same molecule?
**A.** 3.32%

**Q.** What about the viability, T/C (second compound 10 µM, first compound 0.1 µM) of the same molecule?
**A.** 3.53%

**Q.** What about the viability, T/C (second compound 10 µM, first compound 0.316 µM) of the same molecule?
**A.** 3.59%

**Q.** And the viability, T/C (second compound 10 µM, first compound 1 µM)?
**A.** 3.51%

**Q.** What about the viability, T/C (second compound 10 µM, first compound 3.16 µM) of the same molecule?
**A.** 3.82%

**Q.** What about the viability, T/C (second compound 10 µM, first compound 10 µM) of the same molecule?
**A.** 3.48%

**Q.** Which IC50 (second compound 0.00316 µM) does the source give for `C=CC(=O)N1CCN(c2nc(=O)n(-c3c(C)ccnc3C(C)C)c3nc(-c4c(O)cccc4F)c(F)cc23)C(C)C1` (centres undefined) + COc1c(OCCCN2CCOCC2)ccc2c3n(c(=NC(=O)c4cnc(N)nc4)nc12)CCN3 here?
**A.** 5310 nM

**Q.** And the IC50 (second compound 0.01 µM)?
**A.** < 31.6 nM

**Q.** What about the IC50 (second compound 0.0316 µM) of the same molecule?
**A.** < 31.6 nM

**Q.** What about the IC50 (second compound 0.1 µM) of the same molecule?
**A.** < 31.6 nM

**Q.** What about the IC50 (second compound 0.316 µM) of the same molecule?
**A.** < 31.6 nM

**Q.** And the IC50 (second compound 1 µM)?
**A.** < 31.6 nM

**Q.** And the viability, T/C (second compound 0.00316 µM, first compound 0.0316 µM)?
**A.** 63.5%

**Q.** What about the viability, T/C (second compound 0.00316 µM, first compound 0.1 µM) of the same molecule?
**A.** 70%

**Q.** What about the viability, T/C (second compound 0.00316 µM, first compound 0.316 µM) of the same molecule?
**A.** 50%

**Q.** What about the viability, T/C (second compound 0.00316 µM, first compound 1 µM) of the same molecule?
**A.** 66.9%

**Q.** What about the viability, T/C (second compound 0.00316 µM, first compound 3.16 µM) of the same molecule?
**A.** 60.3%

**Q.** What about the viability, T/C (second compound 0.00316 µM, first compound 10 µM) of the same molecule?
**A.** 36.9%

**Q.** And the viability, T/C (second compound 0.01 µM, first compound 0.0316 µM)?
**A.** 45.4%

**Q.** And the viability, T/C (second compound 0.01 µM, first compound 0.1 µM)?
**A.** 49.9%

**Q.** And the viability, T/C (second compound 0.01 µM, first compound 0.316 µM)?
**A.** 49%

**Q.** What about the viability, T/C (second compound 0.01 µM, first compound 1 µM) of the same molecule?
**A.** 51.3%

**Q.** And the viability, T/C (second compound 0.01 µM, first compound 3.16 µM)?
**A.** 43.8%

**Q.** What about the viability, T/C (second compound 0.01 µM, first compound 10 µM) of the same molecule?
**A.** 28.4%

**Q.** What about the viability, T/C [1] of the same molecule?
**A.** 24.2%

**Q.** And the viability, T/C [2]?
**A.** 25.5%

**Q.** And the viability, T/C [3]?
**A.** 24.3%

**Q.** And the viability, T/C [4]?
**A.** 26.2%

**Q.** And the viability, T/C [5]?
**A.** 25.6%

**Q.** What about the viability, T/C [6] of the same molecule?
**A.** 13.3%

**Q.** What about the viability, T/C [7] of the same molecule?
**A.** 7.99%

**Q.** And the viability, T/C [8]?
**A.** 8.18%

**Q.** And the viability, T/C [9]?
**A.** 9.55%

**Q.** And the viability, T/C [10]?
**A.** 9.16%

**Q.** And the viability, T/C [11]?
**A.** 8.78%

**Q.** And the viability, T/C [12]?
**A.** 4.72%

**Q.** And the viability, T/C [13]?
**A.** 1.86%

**Q.** And the viability, T/C [14]?
**A.** 1.72%

**Q.** And the viability, T/C [15]?
**A.** 2.68%

**Q.** And the viability, T/C [16]?
**A.** 2.25%

**Q.** And the viability, T/C [17]?
**A.** 2.28%

**Q.** And the viability, T/C [18]?
**A.** 2.01%

**Q.** And the viability, T/C [19]?
**A.** 0.96%

**Q.** And the viability, T/C [20]?
**A.** 0.93%

**Q.** And the viability, T/C [21]?
**A.** 1.05%

**Q.** And the viability, T/C [22]?
**A.** 1.41%

**Q.** What about the viability, T/C [23] of the same molecule?
**A.** 1.76%

**Q.** And the viability, T/C [24]?
**A.** 3.63%
